From the NIST ThermoML archive (doi:10.1021/je200350a)
Numbers after ± are expanded uncertainties.

Test: xn = mol fraction of the nth substance listed
Conditions: 101 kPa, Liquid; for viscosity: Capillary tube (Ostwald / Ubbelohde) method

CCCCBr [1-bromobutane] + CC1CCCCC1
Conditions | mass density, 293.15 K [kg/m3] | mass density, 298.15 K [kg/m3] | mass density, 303.15 K [kg/m3] | mass density, 308.15 K [kg/m3] | viscosity, 293.15 K [mPa·s] | viscosity, 298.15 K [mPa·s] | viscosity, 303.15 K [mPa·s] | viscosity, 308.15 K [mPa·s]
x2 = 0.1014 | 1218.7 ± 1.3 | 1212.2 ± 1.3 | 1206.3 ± 1.3 | 1198.2 ± 1.2 | 0.6398 ± 0.0063 | 0.6033 ± 0.006 | 0.5754 ± 0.0058 | 0.5463 ± 0.0055
x2 = 0.1535 | 1187.3 ± 1.2 | 1180.4 ± 1.2 | 1174.2 ± 1.2 | 1167.5 ± 1.2 | 0.6402 ± 0.0063 | 0.6034 ± 0.006 | 0.5745 ± 0.0058 | 0.5458 ± 0.0055
x2 = 0.2607 | 1129.8 ± 1 | 1123 ± 1 | 1118.5 ± 1 | 1111 ± 1 | 0.6441 ± 0.0064 | 0.6066 ± 0.006 | 0.5762 ± 0.0058 | 0.5462 ± 0.0055
x2 = 0.372 | 1071 ± 0.9 | 1064.8 ± 0.9 | 1059.4 ± 0.9 | 1053.2 ± 0.9 | 0.6465 ± 0.0064 | 0.6104 ± 0.0061 | 0.578 ± 0.0058 | 0.5479 ± 0.0055
x2 = 0.4293 | 1041 ± 0.8 | 1035.5 ± 0.8 | 1029.9 ± 0.8 | 1024.4 ± 0.8 | 0.6517 ± 0.0064 | 0.6152 ± 0.0061 | 0.5826 ± 0.0058 | 0.5516 ± 0.0056
x2 = 0.5473 | 978.8 ± 0.8 | 973.2 ± 0.8 | 967.8 ± 0.8 | 962.5 ± 0.8 | 0.6581 ± 0.0065 | 0.62 ± 0.0062 | 0.5854 ± 0.0059 | 0.554 ± 0.0056
x2 = 0.608 | 946.5 ± 0.8 | 941.2 ± 0.8 | 935.8 ± 0.8 | 930.7 ± 0.9 | 0.6622 ± 0.0065 | 0.6235 ± 0.0062 | 0.5882 ± 0.0059 | 0.5561 ± 0.0056
x2 = 0.7979 | 858.3 ± 1 | 853.5 ± 1 | 849 ± 1 | 843.8 ± 1 | 0.6877 ± 0.0067 | 0.6457 ± 0.0064 | 0.6074 ± 0.0061 | 0.5721 ± 0.0058
x2 = 0.8639 | 830 ± 1 | 825.8 ± 1.1 | 821.8 ± 1.1 | 816.5 ± 1.1 | 0.6993 ± 0.0068 | 0.6558 ± 0.0065 | 0.6166 ± 0.0061 | 0.5806 ± 0.0058
